From patent publication US10501494B2, “Uses of peptides to treat brain injury and disease” (priority 2013, dated 2019)
Like-named read-outs stand apart in the source and are kept apart here.

Columns and labels:
[1] = test system: microglial and astrocytes; details: daily peripheral administration, hippocampus; cited from earlier work
[2] = Survival of MethA ascites tumor-bearing mice treated with LPS; assay type: in vivo; details: 1 mg/Kg, 50 μgm LPS i.p.; vehicle control 5/20
Description: Associated with the injection of LPS is the extensive production of tumor necrosis factor alpha (TNF-α). Mice injected with recombinant human TNF-α develop pilo erection of the hair (ruffling), diarrhea and a withdrawn and unkempt appearance, followed by death if sufficient amounts are given. Rats treated with TNF become hypotensive, tachypneic and die of sudden respiratory arrest. Administration of DAPTA (1 mg/Kg) to MethA ascites tumor-bearing mice that were treated with 50 μgm LPS by i.p. injection, had better survival (15/20 in the DAPTA treated group compared to 5/20 in the vehicle control treated group). Thus DAPTA blocks septic shock via innate immune pathways, like the Toll receptors, that cause inflammation in the brain and that are typically activated in injuries.

inflammatory cytokines [3] = details: Hu; Ruff, 2003; cited from earlier work
[4] = test system: chemokine receptor 8 (CCR8); experiment: Blocking of chemokine receptor 8; assay type: cell-based
From the text: The peptides share activity to block diverse chemokine receptors. […] Thus again, with a different receptor target, the all-D peptide performs very similarly to its mostly L-amino acid prototype first described in Pert, 1986. (FIG. 3).

[5] = target: CCL2 (MCP-1) chemotaxis, CCR5/CCR2 (Homo sapiens, UniProt P41597); details: human monocytes, FIG. 1
From the text: Triplicate determinations were made and results are expressed as the mean plus or minus SEM. The experiment shown is a direct comparison among all RAPs. Statistical analysis was by unpaired t-test, with significance set at the p<0.01 (*) level for difference from CCL2 only chemotaxis.

inflammatory cytokines [6] = details: Rat; Padi, 2012; cited from earlier work
[7] = nerve injury model; Padi; cited from earlier work
inflammatory cytokines [8] = details: Rat; unpublished
CCL2/CCR2 = CCL2/CCR2 (Homo sapiens, UniProt P41597); details: human monocytes
MIP-1β (CCL4)/CCR5 = MIP-1β (CCL4)/CCR5 (Homo sapiens, UniProt P51681); details: low (sub-pM) concentrations, MIP-1β 50 ng/mL, monocytes treated with GM-CSF for 48 hours
From the text: It is compared for biopotency with an all-D amino acid close analog whereby all of the amino acids are made in the D form (RAP-310) to block the CCR5 chemokine receptors.
Data are the average of triplicate determinations. Data are presented as Mean±SEM.

CCR2 (MCP-1) = target: T1, CCR2 (MCP-1) (Homo sapiens, UniProt P41597); experiment: MCP-1 elicited chemotaxis of human monocytes, all-D-pentapeptides (FIG. 2); assay type: cell-based; details: 20 pM peptide for 30 minutes, MCP-1 0.6 nM for 2 hours, purified human monocytes
T1 construct: Purified human monocytes were treated with 20 pM of All-D-pentapeptides; endogenous in cells; host or cells: purified human monocytes
From the text: A representative experiment is shown comprising triplicate determinations and is presented as relative fluorescence units, Mean±SEM.

T1 sequence (P41597 whole entry): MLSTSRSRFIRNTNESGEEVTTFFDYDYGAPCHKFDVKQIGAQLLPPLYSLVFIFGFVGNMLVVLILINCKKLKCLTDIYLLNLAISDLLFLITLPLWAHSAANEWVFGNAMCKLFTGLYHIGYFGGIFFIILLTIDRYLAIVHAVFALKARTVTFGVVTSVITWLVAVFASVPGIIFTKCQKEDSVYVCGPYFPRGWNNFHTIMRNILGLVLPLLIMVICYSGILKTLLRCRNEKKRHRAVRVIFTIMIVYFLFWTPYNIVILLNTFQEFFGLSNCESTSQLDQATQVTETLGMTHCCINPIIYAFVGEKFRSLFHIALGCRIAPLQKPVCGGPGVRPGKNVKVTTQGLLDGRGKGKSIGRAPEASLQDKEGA
Chain of MIP-1β (CCL4)/CCR5 (P51681 whole entry): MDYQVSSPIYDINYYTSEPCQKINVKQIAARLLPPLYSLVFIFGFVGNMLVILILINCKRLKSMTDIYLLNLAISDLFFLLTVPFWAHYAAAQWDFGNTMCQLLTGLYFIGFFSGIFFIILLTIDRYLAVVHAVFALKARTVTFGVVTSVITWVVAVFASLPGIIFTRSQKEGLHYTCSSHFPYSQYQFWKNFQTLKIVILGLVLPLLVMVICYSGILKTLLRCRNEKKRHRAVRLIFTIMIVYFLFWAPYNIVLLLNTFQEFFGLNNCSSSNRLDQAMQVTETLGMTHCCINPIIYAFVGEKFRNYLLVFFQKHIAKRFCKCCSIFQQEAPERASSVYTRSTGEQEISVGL
Chain of CCL2/CCR2 (P41597 whole entry): as the sequence (P41597 whole entry) above
Chain of CCL2 (MCP-1) chemotaxis, CCR5/CCR2 (P41597 whole entry): as above

Molecule: C[C@@H](N)C(=O)N[C@@H](CO)C(=O)N[C@H](C(=O)N[C@H](C(=O)N[C@H](C(=O)N[C@@H](CC(N)=O)C(=O)N[C@@H](Cc1ccc(O)cc1)C(=O)N[C@H](C(N)=O)[C@@H](C)O)[C@@H](C)O)[C@@H](C)O)[C@@H](C)O [RAP-101, D-Ala1-STTTNYT-NH2]
- inflammatory response induced by LPS (number and reactive state of microglial and astrocytes, NFkB expression) [1]: dramatically attenuated
- survival [2]: 15/20
- IL-1 change (inflammatory cytokines [3]): decrease
- IL-6 change (inflammatory cytokines [3]): decrease
- IL-8 change (inflammatory cytokines [3]): decrease
- TNF-α change (inflammatory cytokines [3]): decrease
- blocking of CCR8 [4]: blocks
- potency to block CCL2 (MCP-1) chemotaxis [5]: most potent

Molecule: C[C@H](O)[C@@H](N)C(=O)N[C@@H](C(=O)N[C@H](CC(N)=O)C(=O)N[C@H](Cc1ccc(O)cc1)C(=O)N[C@@H](C(=O)O)[C@H](C)O)[C@H](C)O [RAP-103, All-D-TTNYT]
- IL-1β change (inflammatory cytokines [6]): decrease
- IL-6 change (inflammatory cytokines [6]): decrease
- inflammation, cytokine secretion and monocyte infiltration [7]: blocks
- CCL2 change (inflammatory cytokines [8]): decrease
- CCL3 change (inflammatory cytokines [8]): decrease
- CCR2 change (inflammatory cytokines [8]): decrease
- CCR5 change (inflammatory cytokines [8]): decrease
- MCP-1 change (inflammatory cytokines [8]): decrease
- MIP-1α change (inflammatory cytokines [8]): decrease
- TNF-α change (inflammatory cytokines [8]): decrease

Molecule: C[C@H](O)[C@@H](NC(=O)[C@@H](Cc1ccc(O)cc1)NC(=O)[C@@H](CC(N)=O)NC(=O)[C@H](NC(=O)[C@H](NC(=O)[C@H](NC(=O)[C@@H](CO)NC(=O)[C@@H](C)N)[C@H](C)O)[C@H](C)O)[C@H](C)O)C(=O)O [RAP-310]
- loss of potency in blocking CCL2-elicited chemotaxis compared to RAP-101 (CCL2/CCR2): minimal loss of potency
- blocking of CCR8 [4]: comparable potency
- potency to block CCR5-mediated human monocyte chemotaxis (MIP-1β (CCL4)/CCR5): comparable potency

Molecule: Asn-Thr-Arg-Tyr-Arg
- inhibition of MCP-1 elicited chemotaxis (CCR2 (MCP-1)): efficacious

Molecule: Asn-Thr-Ser-Tyr-Arg (NTSYR; Human immunodeficiency virus)
- inhibition of MCP-1 elicited chemotaxis (CCR2 (MCP-1)): efficacious

Molecule: Asn-Thr-Ser-Tyr-Gly (NTSYG; Human immunodeficiency virus)
- inhibition of MCP-1 elicited chemotaxis (CCR2 (MCP-1)): efficacious

Molecule: Glu-Thr-Trp-Tyr-Ser (ETWYS; Human immunodeficiency virus)
- inhibition of MCP-1 elicited chemotaxis (CCR2 (MCP-1)): efficacious

Molecule: Ile-Asn-Asn-Tyr-Thr (INNYT; Human immunodeficiency virus)
- inhibition of MCP-1 elicited chemotaxis (CCR2 (MCP-1)): efficacious

Molecule: Ile-Asp-Asn-Tyr Thr (IDNYT; Human immunodeficiency virus)
- inhibition of MCP-1 elicited chemotaxis (CCR2 (MCP-1)): efficacious

Molecule: Ser-Ser-Thr-Tyr-Arg (SSTYR; Human immunodeficiency virus)
- inhibition of MCP-1 elicited chemotaxis (CCR2 (MCP-1)): efficacious

Molecule: Thr-Thr-Ser-Tyr-Thr (TTSYT; Human immunodeficiency virus)
- inhibition of MCP-1 elicited chemotaxis (CCR2 (MCP-1)): efficacious
